Drawing on patent US10487068B2, “Pyridazine derivatives as RORc modulators” (Genentech, Inc., priority 2015, dated 2019), this text covers IC50 for 33 compounds.

In the experiment the target is T1, RORc ligand binding domain (Homo sapiens, UniProt P51449).
T1 sequence (P51449 269-508 limits assumed): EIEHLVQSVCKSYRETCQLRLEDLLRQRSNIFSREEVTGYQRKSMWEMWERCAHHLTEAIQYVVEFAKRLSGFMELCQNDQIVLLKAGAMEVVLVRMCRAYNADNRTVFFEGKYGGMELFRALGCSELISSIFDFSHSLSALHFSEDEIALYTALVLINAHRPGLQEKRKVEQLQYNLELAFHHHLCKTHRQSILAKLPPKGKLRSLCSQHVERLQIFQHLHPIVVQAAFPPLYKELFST
As to the kind of experiment: In Vitro RORc Ligand Binding Assay. The note with it: RORc IC50, radioligand 25-[3H]hydroxycholesterol 6 nM; 0.6 ug/mL RORc receptor; 3 h at 25° C.

pIC50: −log10 of the molar value.

As for `CC1(C)[C@H]2CC[C@]1(c1ccnc(C#N)c1C#N)c1nnc(-c3c(F)cccc3F)cc12` [Example 192, 4-((5R,8S)-3-(2,6-difluorophenyl)-9,9-dimethyl-5,6,7,8-tetrahydro-5,8-methanocinnolin-8-yl)pyridine-2,3-dicarbonitrile], the pIC50 (as a rule, the IC50 on a negative log10 scale, so that one unit is a factor of ten) is 6.91.

With `CC1(C)[C@H]2CC[C@]1(c1nc(C(=O)NCCO)ncc1Br)c1nnc(-c3c(F)cccc3F)cc12` [Example 193], the pIC50 is 7.24.

`CC1(C)[C@H]2CC[C@]1(c1cncc(C(=O)NCCO)c1)c1nnc(-c3c(F)cccc3F)cc12` [Example 194, 5-((5R,8S)-3-(2,6-difluorophenyl)-9,9-dimethyl-5,6,7,8-tetrahydro-5,8-methanocinnolin-8-yl)-N-(2-hydroxyethyl)nicotinamide] gave a pIC50 of 7.62.

On to `CC1(C)[C@H]2CC[C@]1(c1cncc(-n3cncn3)n1)c1nnc(-c3c(F)cccc3F)cc12` [Example 195], for which the pIC50 was 8.20.

Take `CC(C)(O)c1coc(-c2cncc([C@@]34CC[C@@H](c5cc(-c6c(F)cccc6F)nnc53)C4(C)C)n2)n1` [Example 196, 2-(2-(6-((5R,8S)-3-(2,6-difluorophenyl)-9,9-diimethyl-5,6,7,8-tetrahydro-5,8-methanocinnolin-8-yl)pyrazin-2-yl)oxazol-4-yl)propan-2-ol]: the pIC50 was 8.19.

For `CC1(C)[C@H]2CC[C@]1(c1cncc(C(=O)N[C@H]3C[C@](C)(O)C3)n1)c1nnc(-c3c(F)cccc3F)cc12` [Example 197, 6-((5R,8S)-3-(2,6-difluorophenyl)-9,9-dimethyl-5,6,7,8-tetrahydro-5,8-methanocinnolin-8-yl)-N-((1r,3S)-3-hydroxy-3-methylcyclobutyl)pyrazine-2-carboxamide], the pIC50 was 7.85.

In the case of `CC(C)(O)CNS(=O)(=O)c1cccc([C@@]23CC[C@@H](c4cc(-c5c(F)cccc5F)nnc42)C3(C)C)n1` [Example 198, 6-((5R,8S)-3-(2,6-difluorophenyl)-9,9-dimethyl-5,6,7,8-tetrahydro-5,8-methanocinnolin-8-yl)-N-(2-hydroxy-2-methylpropyl)pyridine-2-sulfonamide], the pIC50 is 7.58.

The compound `CC1(C)[C@H]2CC[C@]1(c1cccc(S(=O)(=O)NC3(CO)COC3)n1)c1nnc(-c3c(F)cccc3F)cc12` [Example 199, 6-((5R,8S)-3-(2,6-difluorophenyl)-9,9-dimethyl-5,6,7,8-tetrahydro-5,8-methanocinnolin-8-yl)-N-(3-(hydroxymethyl)oxetan-3-yl)pyridine-2-sulfonamide] gave a pIC50 of 8.03.

Take `C[C@@H](O)CNS(=O)(=O)c1cccc([C@@]23CC[C@@H](c4cc(-c5c(F)cccc5F)nnc42)C3(C)C)n1` [Example 200, 6-((5R,8S)-3-(2,6-difluorophenyl)-9,9-dimethyl-5,6,7,8-tetrahydro-5,8-methanocinnolin-8-yl)-N-((R)-2-hydroxypropyl)pyridine-2-sulfonamide]: the pIC50 was 7.93.

`C[C@H](O)CNS(=O)(=O)c1cccc([C@@]23CC[C@@H](c4cc(-c5c(F)cccc5F)nnc42)C3(C)C)n1` [Example 201, 6-((5R,8S)-3-(2,6-difluorophenyl)-9,9-dimethyl-5,6,7,8-tetrahydro-5,8-methanocinnolin-8-yl)-N-((S)-2-hydroxypropyl)pyridine-2-sulfonamide] showed a pIC50 of 7.48.

As for `CC1(C)[C@H]2CC[C@]1(c1cncc(-n3cc[nH]c3=O)n1)c1nnc(-c3c(F)cccc3F)cc12` [Example 202, 1-(6-((5R,8S)-3-(2,6-difluorophenyl)-9,9-dimethyl-5,6,7,8-tetrahydro-5,8-methanocinnolin-8-yl)pyrazin-2-yl)-1H-imidazol-2(3H)-one], the pIC50 was 7.97.

In turn, `CC(C)(O)c1nnc(-c2cncc([C@@]34CC[C@@H](c5cc(-c6c(F)cccc6F)nnc53)C4(C)C)n2)[nH]1` [Example 203, 2-(5-(6-((5R,8S)-3-(2,6-difluorophenyl)-9,9-dimethyl-5,6,7,8-tetrahydro-5,8-methanocinnolin-8-yl)pyrazin-2-yl)-4H-1,2,4-triazol-3-yl)propan-2-ol] had a pIC50 of 7.61.

`CC1(C)[C@H]2CC[C@]1(c1cncc(NC(=O)NCCO)n1)c1nnc(-c3c(F)cccc3F)cc12` [Example 204, 1-(6-((5R,8S)-3-(2,6-difluorophenyl)-9,9-dimethyl-5,6,7,8-tetrahydro-5,8-methanocinnolin-8-yl)pyrazin-2-yl)-3-(2-hydroxyethyl)urea] had a pIC50 of 7.13.

On to `CC1(C)[C@H]2CC[C@]1(c1cncc(-c3cn[nH]c3)n1)c1nnc(-c3c(F)cccc3F)cc12` [Example 205], for which the pIC50 was 7.98.

With `CC1(C)[C@H]2CC[C@]1(c1cncc(-c3cnc(CO)o3)n1)c1nnc(-c3c(F)cccc3F)cc12` [Example 206, (5-(6-((5R,8S)-3-(2,6-difluorophenyl)-9,9-dimethyl-5,6,7,8-tetrahydro-5,8-methanocinnolin-8-yl)pyrazin-2-yl)oxazol-2-yl)methanol], the pIC50 is 8.17.

Take `CC1(C)[C@H]2CC[C@]1(c1cccc(-c3cnc(CO)o3)n1)c1nnc(-c3c(F)cccc3F)cc12` [Example 207, (5-(6-((5R,8S)-3-(2,6-difluorophenyl)-9,9-dimethyl-5,6,7,8-tetrahydro-5,8-methanocinnolin-8-yl)pyridin-2-yl)oxazol-2-yl)methanol]: the pIC50 is 8.42.

In turn, `Cc1cn(-c2nccc([C@@]34CC[C@@H](c5cc(-c6c(F)cccc6F)nnc53)C4(C)C)n2)cn1` [Example 208] showed a pIC50 of 8.44.

The compound `Cc1ncc(-c2cnc(C)c([C@@]34CC[C@@H](c5cc(-c6c(F)cccc6F)nnc53)C4(C)C)n2)o1` [Example 209, 5-(6-((5R,8S)-3-(2,6-difluorophenyl)-9,9-dimethyl-5,6,7,8-tetrahydro-5,8-methanocinnolin-8-yl)-5-methylpyrazin-2-yl)-2-methyloxazole] had a pIC50 of 7.82.

The compound `CC1(C)[C@H]2CC[C@]1(c1cc(C#N)nc(C#N)c1)c1nnc(-c3c(F)cccc3F)cc12` [Example 210, 4-((5R,8S)-3-(2,6-difluorophenyl)-9,9-dimethyl-5,6,7,8-tetrahydro-5,8-methanocinnolin-8-yl)pyridine-2,6-dicarbonitrile] gave a pIC50 of 6.94.

For `CC1(C)[C@H]2CC[C@]1(c1ccnc(-n3cccn3)n1)c1nnc(-c3c(F)cccc3F)cc12` [Example 211], the pIC50 was 8.06.

On to `Cc1ncn(-c2nccc([C@@]34CC[C@@H](c5cc(-c6c(F)cccc6F)nnc53)C4(C)C)n2)n1` [Example 212], for which the pIC50 was 7.55.

As for `CC1(C)[C@H]2CC[C@]1(c1cccc(-c3ccn[nH]3)n1)c1nnc(-c3c(F)cccc3F)cc12` [Example 213], the pIC50 was 8.21.

On to `CC(C)(O)c1nnc(-c2cccc([C@@]34CC[C@@H](c5cc(-c6c(F)cccc6F)nnc53)C4(C)C)n2)[nH]1` [Example 214, 2-(5-(6-((5R,8S)-3-(2,6-difluorophenyl)-9,9-dimethyl-5,6,7,8-tetrahydro-5,8-methanocinnolin-8-yl)pyridin-2-yl)-4H-1,2,4-triazol-3-yl)propan-2-ol], for which the pIC50 was 7.52.

Turning to `CC1(C)[C@H]2CC[C@]1(c1ccnc(-n3cc(CCO)cn3)n1)c1nnc(-c3c(F)cccc3F)cc12` [Example 215], the pIC50 is 7.55.

`CC1(C)[C@H]2CC[C@]1(c1cccc(-n3cnnc3)n1)c1nnc(-c3c(F)cccc3F)cc12` [Example 216] showed a pIC50 of 7.90.

As to `CC1(C)[C@H]2CC[C@]1(c1cncc(F)c1)c1nnc(-c3c(F)cccc3F)cc12` [Example 217, (5R,8S)-3-(2,6-difluorophenyl)-8-(5-fluoropyridin-3-yl)-9,9-dimethyl-5,6,7,8-tetrahydro-5,8-methanocinnoline], the pIC50 is 8.13.

As to `CC1(C)[C@H]2CC[C@]1(c1nc(C(=O)NCCO)ncc1F)c1nnc(-c3c(F)cccc3F)cc12` [Example 218], the pIC50 was 7.22.

As for `CC1(C)[C@H]2CC[C@]1(c1ccnc(-n3cnc(CO)c3)n1)c1nnc(-c3c(F)cccc3F)cc12` [Example 219], the pIC50 was 8.17.

Consider `CC1(C)[C@H]2CC[C@]1(c1ccnc(-n3cnc(C#N)n3)n1)c1nnc(-c3c(F)cccc3F)cc12` [Example 220], for which the pIC50 is 7.60.

The compound `C[C@@H](O)c1nnc(-c2cccc([C@@]34CC[C@@H](c5cc(-c6c(F)cccc6F)nnc53)C4(C)C)n2)[nH]1` [Example 221, (R)-1-(5-(6-((5R,8S)-3-(2,6-difluorophenyl)-9,9-dimethyl-5,6,7,8-tetrahydro-5,8-methanocinnolin-8-yl)pyridin-2-yl)-4H-1,2,4-triazol-3-yl)ethanol] had a pIC50 of 7.63.

The compound `C[C@H](O)c1nnc(-c2cccc([C@@]34CC[C@@H](c5cc(-c6c(F)cccc6F)nnc53)C4(C)C)n2)[nH]1` [Example 222, (S)-1-(5-(6-((5R,8S)-3-(2,6-difluorophenyl)-9,9-dimethyl-5,6,7,8-tetrahydro-5,8-methanocinnolin-8-yl)pyridin-2-yl)-4H-1,2,4-triazol-3-yl)ethanol] showed a pIC50 of 7.96.

The compound `Cc1nnc(-c2ccnc([C@@]34CC[C@@H](c5cc(-c6c(F)cccc6F)nnc53)C4(C)C)c2)[nH]1` [Example 223] had a pIC50 of 7.21.

With `C[C@H](O)c1nnc(-c2cncc([C@@]34CC[C@@H](c5cc(-c6c(F)cccc6F)nnc53)C4(C)C)n2)[nH]1` [Example 224, (S)-1-(5-(6-((5R,8S)-3-(2,6-difluorophenyl)-9,9-dimethyl-5,6,7,8-tetrahydro-5,8-methanocinnolin-8-yl)pyrazin-2-yl)-4H-1,2,4-triazol-3-yl)ethanol], the pIC50 was 7.91.
